The assay concerns the target T1, 5HTR2B (Homo sapiens, UniProt P41595).
T1 construct: host or cells: human Maverick/293 cells
In words: 5HTR2B antagonist activity, calcium mobilization assay in human Maverick/293 cells (serotonin as agonist). Format: cell-based. To be noted: intracellular calcium, emission 525 nm, read-out: Ca assay IC50. As to the method: The 5HTR2B antagonist activity was measured using human Maverick/293 cells in a calcium mobilization assay. The measurement starting with plating human Maverick/293 cells (log phase) onto 96-well black and incubate at 37° C. overnight, Followed by starving cells for 2 h by changing complete medium to DMEM without FBS, removing the medium from the 96-well plate. Loading staining calcium buffer into each well and incubated the plate at 37° C. for 50 min. After removal of staining calcium buffer, diluted antagonist were added into the well, incubate 15 to 30 minutes. Dispense serotonin as the 5HTR2B agonists into each well. Intracellular calcium concentration is recorded for 80 seconds by monitoring an emission at a wavelength of 525 nm with an excitation wavelength of 485 nm. Inhibition efficiency of the cell line was determined following the equation: % Inhibition=100%−(D−B)/(S−B)*100%. (S: The peak value in the presence of agonist serotonin; D: The peak value in the presence of different dilution compound or serotonin; B: The peak value in the presence of calcium HBSS buffer only). […] A dose response curve was fitted using nonlinear regression model with a sigmoidal dose response. The IC50 was automatically produced by GraphPad Prism 5.0.
In general terms: A change in cytosolic calcium serves as a functional read-out for many receptors and channels.

T1 sequence (P41595 whole entry): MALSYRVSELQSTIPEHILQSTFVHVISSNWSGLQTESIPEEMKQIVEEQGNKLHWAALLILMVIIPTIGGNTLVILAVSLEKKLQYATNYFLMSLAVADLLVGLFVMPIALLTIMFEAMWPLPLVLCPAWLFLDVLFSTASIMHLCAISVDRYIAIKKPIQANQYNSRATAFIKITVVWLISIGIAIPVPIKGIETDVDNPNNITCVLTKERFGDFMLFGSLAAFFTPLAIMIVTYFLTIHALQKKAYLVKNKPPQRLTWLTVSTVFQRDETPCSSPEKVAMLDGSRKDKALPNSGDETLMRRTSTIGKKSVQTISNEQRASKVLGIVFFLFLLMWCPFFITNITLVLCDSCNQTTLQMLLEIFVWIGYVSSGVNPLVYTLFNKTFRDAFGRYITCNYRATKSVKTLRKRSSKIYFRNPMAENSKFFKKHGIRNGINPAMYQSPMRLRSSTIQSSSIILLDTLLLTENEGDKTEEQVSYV

For orientation: IC50 means the midpoint of a concentration-inhibition curve. For the molecule `COc1ccc(S(=O)(=O)NC2CCOCC2)cc1C(=O)Nc1ccc(F)c(C)n1` [Compound 17, N-(5-Fluoro-6-methylpyridin-2-yl)-2-methoxy-5-(N-(tetrahydro-2H-pyran-4-yl)sulfamoyl)benzamide], the IC50 worked out at 7.2 nM.
Take `COc1ccc(S(=O)(=O)N[C@H](C)CO)cc1C(=O)Nc1ccc(F)cc1` [Compound 52b, (R)—N-(4-fluorophenyl)-5-(N-(1-hydroxypropan-2-yl)sulfamoyl)-2-methoxybenzamide]: the IC50 amounted to 4.5 nM.
Turning to `COc1ccc(S(=O)(=O)N[C@H]2CCOC2)cc1C(=O)Nc1cc(C)c(F)cn1` [Compound 161, (S)—N-(5-Fluoro-4-methylpyridin-2-yl)-2-methoxy-5-(N-(tetrahydrofuran-3-yl)sulfamoyl)benzamide], the IC50 was 79 nM.
Under `COc1ccc(S(=O)(=O)N[C@H](C)CO)cc1C(=O)Nc1ccc(F)c(C)c1` [Compound 10b, (R)—N-(4-Fluoro-3-methylphenyl)-5-(N-(1-hydroxypropan-2-yl)sulfamoyl)-2-methoxybenzamide] stands 12 nM; under `COc1ccc(S(=O)(=O)NC2(C)COC2)cc1C(=O)Nc1ccc(F)cc1` [Compound 42, N-(4-Fluorophenyl)-2-methoxy-5-(N-(3-methyloxetan-3-yl)sulfamoyl)benzamide], 2.2 nM.
As to `COc1ccc(S(=O)(=O)N[C@@H](C)C(N)=O)cc1C(=O)Nc1ccc(F)c(C)c1` [Compound 12a, (S)-5-(N-(1-Amino-1-oxopropan-2-yl)sulfamoyl)-N-(4-fluoro-3-methylphenyl)-2-methoxybenzamide], the IC50 came to 1.8 nM.
Regarding `COc1c(F)cc(S(=O)(=O)N[C@H]2CCOC2)cc1C(=O)Nc1ccc(F)c(C)c1` [Compound 200, (S)-3-fluoro-N-(4-fluoro-3-methylphenyl)-2-methoxy-5-(N-(tetrahydrofuran-3-yl)sulfamoyl)benzamide], the IC50 amounted to 3.3 nM.
As to `COc1ccc(S(=O)(=O)N[C@H]2CCNC2)cc1C(=O)Nc1ccc(F)c(C)n1` [Compound 175, (S)—N-(5-Fluoro-6-methylpyridin-2-yl)-2-methoxy-5-(N-(pyrrolidin-3-yl)sulfamoyl)benzamide], the half-maximal inhibitory concentration (IC50) came out at 1.6 nM.
Regarding `COc1ccc(S(=O)(=O)N[C@H]2CCOC2)cc1C(=O)Nc1cccc(F)c1OC` [Compound 134, (S)—N-(3-fluoro-2-methoxyphenyl)-2-methoxy-5-(N-(tetrahydrofuran-3-yl)sulfamoyl)benzamide], the concentration for half-maximal inhibition (IC50) was found to be 0.5 nM.
The same measure for `COc1ccc(S(=O)(=O)N[C@H]2CCOC2)cc1C(=O)Nc1cc(F)cc(F)c1` [Compound 67, (S)—N-(3,5-Difluorophenyl)-2-methoxy-5-(N-(tetrahydrofuran-3-yl)sulfamoyl)benzamide]: 8.8 nM; for `COc1ccc(S(=O)(=O)N[C@H]2CCOC2)cc1C(=O)Nc1ccccc1OC(F)(F)F` [Compound 150, (S)-2-Methoxy-5-(N-(tetrahydrofuran-3-yl)sulfamoyl)-N-(2-(trifluoromethoxy)phenyl)benzamide]: 9.9 nM; for `COc1ccc(S(=O)(=O)N[C@H]2CCOC2)cc1C(=O)Nc1cccc(C#N)c1` [Compound 102, (S)—N-(3-cyanophenyl)-2-methoxy-5-(N-(tetrahydrofuran-3-yl)sulfamoyl) benzamide]: 435 nM.
For `COCCOC[C@@H](C)NS(=O)(=O)c1ccc(OC)c(C(=O)Nc2ccc(F)cc2F)c1` [Compound 147b, (R)—N-(2,4-Difluorophenyl)-2-methoxy-5-(N-(1-(2-methoxyethoxy)propan-2-yl)sulfamoyl)benzamide], the IC50 is 2.1 nM.
The same measure for `COc1ccc(S(=O)(=O)N[C@H]2CCOC2)cc1C(=O)Nc1c(F)cc(F)cc1Cl` [Compound 78, (S)—N-(2-Chloro-4,6-difluorophenyl)-2-methoxy-5-(N-(tetrahydrofuran-3-yl)sulfamoyl)benzamide]: 2.4 nM; for `COc1ccc(S(=O)(=O)NC2CC(F)(F)C2)cc1C(=O)Nc1ccc(F)c(C)c1` [Compound 1, 5-(N-(3,3-Difluorocyclobutyl)sulfamoyl)-N-(4-fluoro-3-methylphenyl)-2-methoxybenzamide]: 2.3 nM.
As to `COc1ccc(S(=O)(=O)N[C@H]2CCOC2)cc1C(=O)Nc1cc(F)ccc1F` [Compound 69, (S)—N-(2,5-Difluorophenyl)-2-methoxy-5-(N-(tetrahydrofuran-3-yl)sulfamoyl) benzamide], the IC50 was determined as 1.5 nM.
The same measure for `COc1ccc(S(=O)(=O)N[C@H]2CCOC2)cc1C(=O)Nc1cccc(F)c1` [Compound 100, (S)—N-(3-Fluorophenyl)-2-methoxy-5-(N-(tetrahydrofuran-3-yl)sulfamoyl) benzamide]: 4.6 nM; for `COc1ccc(S(=O)(=O)N(C)[C@H]2CCOC2)cc1C(=O)Nc1ccc(F)c(C)n1` [Compound 189, (S)—N-(5-fluoro-6-methylpyridin-2-yl)-2-methoxy-5-(N-methyl-N-(tetrahydrofuran-3-yl)sulfamoyl) benzamide]: 14 nM.
For `COc1ccc(S(=O)(=O)N[C@H]2C[C@@H](O)C2)cc1C(=O)Nc1ccccc1Cl` [Compound 155, N-(2-Chlorophenyl)-5-(N-((cis)-3-hydroxycyclobutyl)sulfamoyl)-2-methoxy benzamide], the IC50 stood at 0.2 nM.
For `COc1ccc(S(=O)(=O)N[C@@H](C)C(N)=O)cc1C(=O)Nc1ccc(F)cc1` [Compound 46b, (S)-5-(N-(1-Amino-1-oxopropan-2-yl)sulfamoyl)-N-(4-fluorophenyl)-2-methoxybenzamide], the concentration for half-maximal inhibition (IC50) stood at 1.8 nM.
Consider `COc1ccc(S(=O)(=O)N[C@H]2C[C@H](O)C2)cc1C(=O)Nc1ccc(F)cn1` [Compound 156], for which the half-maximal inhibitory concentration (IC50) was found to be 159 nM.
As for `COc1ccc(S(=O)(=O)N[C@H]2CCOC2)cc1C(=O)Nc1cccc(Cl)c1` [Compound 126, (S)—N-(3-Chlorophenyl)-2-methoxy-5-(N-(tetrahydrofuran-3-yl)sulfamoyl) benzamide], the IC50 was 12 nM.
Under `COc1ccc(S(=O)(=O)NC2CCC[C@H]2O)cc1C(=O)Nc1ccccc1Cl` (stereo partly drawn) [Compound 61c, N-(2-chlorophenyl)-5-(N-((trans)-2-hydroxycyclopentyl)sulfamoyl)-2-methoxy benzamide] stands 0.2 nM; under `COc1ccc(S(=O)(=O)N[C@H]2C[C@@H](O)C2)cc1C(=O)Nc1ccc(F)c(C)n1` [Compound 141], 2.8 nM.
The same measure for `COc1ccc(S(=O)(=O)N[C@H]2CCNC2)cc1C(=O)Nc1ccc(F)cc1` [Compound 178, (S)—N-(4-Fluorophenyl)-2-methoxy-5-(N-(pyrrolidin-3-yl)sulfamoyl)benzamide]: 0.3 nM.
As to `COc1ccc(S(=O)(=O)NC2CC(C)(C)C2)cc1C(=O)Nc1ccc(F)c(C)c1` [Compound 14, 5-(N-(3,3-Dimethylcyclobutyl)sulfamoyl)-N-(4-fluoro-3-methylphenyl)-2-methoxybenzamide], the IC50 came out at 14.6 nM.
Take `COc1ccc(S(=O)(=O)N[C@H]2CCOC2)cc1NC(=O)c1ccc(F)c(C)c1` [Compound 203, (S)-4-Fluoro-N-(2-methoxy-5-(N-(tetrahydrofuran-3-yl)sulfamoyl)phenyl)-3-methylbenzamide]: the half-maximal inhibitory concentration (IC50) worked out at 13 nM.
With `COc1ccc(S(=O)(=O)N[C@H]2C[C@H](O)C2)cc1C(=O)Nc1c(C)cccc1Cl` [Compound 138a, N-(2-Chloro-6-methylphenyl)-5-(N-((trans)-3-hydroxycyclobutyl)sulfamoyl)-2-methoxybenzamide], the IC50 was found to be 159 nM.
The same measure for `COc1ccc(S(=O)(=O)NC2CC[C@H](O)C2)cc1C(=O)Nc1ccc(F)c(C)c1` (stereo in doubt) [Compound 15a, N-(4-Fluoro-3-methylphenyl)-5-(N-((cis)-3-hydroxycyclopentyl)sulfamoyl)-2-methoxybenzamide]: 2 nM.
As to `COc1ccc(S(=O)(=O)N[C@H]2CCOC2)cc1C(=O)Nc1ccc(Cl)c(F)c1` [Compound 115, (S)—N-(4-Chloro-3-fluorophenyl)-2-methoxy-5-(N-(tetrahydrofuran-3-yl)sulfamoyl)benzamide], the IC50 is 0.8 nM.
For `COc1ccc(S(=O)(=O)NC2CC(C)C2)cc1C(=O)Nc1ccc(F)c(C)c1` (centres unmarked) [Compound 7, N-(4-Fluoro-3-methylphenyl)-2-methoxy-5-(N-(3-methylcyclobutyl)sulfamoyl) benzamide], the IC50 was determined as 5.4 nM.
With `COc1ccc(S(=O)(=O)NC(C)C(N)=O)cc1C(=O)Nc1ccc(F)c(C)c1` (centres unmarked) [Compound 12, 5-(N-(1-Amino-1-oxopropan-2-yl)sulfamoyl)-N-(4-fluoro-3-methylphenyl)-2-methoxybenzamide], the IC50 is 9.3 nM.
The same measure for `COc1ccc(S(=O)(=O)N[C@H]2CCOC2)cc1C(=O)Nc1c(F)ccc(Cl)c1F` [Compound 93, (S)—N-(3-Chloro-2,6-difluorophenyl)-2-methoxy-5-(N-(tetrahydrofuran-3-yl)sulfamoyl)benzamide]: 1060 nM; for `COc1ccccc1NC(=O)c1cc(S(=O)(=O)N[C@H]2CCNC2)ccc1OC` [Compound 184, (S)-2-methoxy-N-(2-methoxyphenyl)-5-(N-(pyrrolidin-3-yl)sulfamoyl) benzamide]: 0.3 nM; for `COc1ccc(S(=O)(=O)NC2COC2)cc1C(=O)Nc1ccc(F)c(C)c1` [Compound 5, N-(4-Fluoro-3-methylphenyl)-2-methoxy-5-(N-(oxetan-3-yl)sulfamoyl) benzamide]: 4.2 nM.

The values are drawn from patent US10654837B2, “Sulphamoylaryl derivatives and use thereof as medicaments for the treatment of liver fibrosis” (Janssen Pharmaceutica NV, priority 2017, dated 2020).
